Test results reported in ChEMBL document CHEMBL1125105, “Synthesis of 1-methyl-5-(3-azido-2,3-dideoxy-beta-D-erythro-pentofuranosyl)uracil and 1-methyl-5-(3-azido-2,3-dideoxy-2-fluoro-beta-D-arabinofuranosyl)uracil. The C-nucleoside isostere of 3'-azido-3'-deoxythymidine and its 2'-"up"-fluoro analogue” (J Med Chem, 1990).

Test system: H9
Experiment: Compound was found to have no significant inhibitory activity against HIV in H9 cells
Assay type: functional, cell-based
Conditions: Homo sapiens

Row | Structure (SMILES) | Activity
1 | Cc1cn(C2CC(CO)C(O)C2F)c(=O)[nH]c1=O (configuration not stated) | No significant inhibitory activity against HIV in H9 cells
2 | Cn1cc([C@H]2C[C@H](N=[N+]=[N-])[C@@H](CO)O2)c(=O)[nH]c1=O | No significant inhibitory activity against HIV in H9 cells
